Results as given in US20230390296A1, “NOVEL TREATMENT AND PREVENTION OF SARCOPENIA-RELATED DISEASES” (KEIO UNIVERSITY, priority 2020, published 2023).
Entries after “also recorded” stand apart in the source; their conditions may differ.

Legend:
[1] = tested on: muscle of mice (C57BL/6J) with exercise; assay: Gene analysis (RNA-seq, GSEA) of muscle of administered mice with exercise; type: in vivo, mouse
Protocol: Gene analysis (RNA-seq) in OK-1 administered mice (C57BL/6J) with exercise was performed by the same method as Example 2.
The category of genes with differential expression identified in Example 5 was analyzed by the same method (GSEA) as Example 3 (FIG. 6).

C2C12 cells = assay: Gene expression levels in treated cultured cells; type: cell-based, mouse
Protocol: Mouse striated muscle derived cells, i.e., C2C12 cells, were cultured and treated with OK-1, ICG-001, or C-82. Gene expression levels of cells treated with OK-1, ICG-001, or C-82, and untreated cells are compared.

[2] = tested on: muscle of mice with/without exercise; assay: Collation of top 100 differentially expressed muscle genes with NIH MedlinePlus (related diseases); design: species or system mouse
Excerpt: Diseases associated with top 100 genes observed to have differential expression in mice with/without exercise were found by collation with NIH MedlinePlus (FIG. 8).

sarcopenia mouse models = assay: Metabolic disease markers (LDH, ALT, TG, HDL-C, insulin, glucose, amylase, AST concentrations); type: in vivo; conditions: administered versus non-administered sarcopenia mouse models
Protocol: (§1) Mouse models were divided into two groups. LDH concentration, ALT concentration, TG concentration, HDL-C concentration, insulin concentration, glucose concentration, amylase concentration, AST concentration, and ALT concentration were measured for sarcopenia mouse models administered with OK-1 and sarcopenia mouse models without administration of OK-1.
as §1, with “C-82” for “OK-1”, “C-82.” for “OK-1.”

[3] = tested on: Mice induced to be obese by feeding high fat feed; assay: High fat feed obese mice (metabolism); type: in vivo, mouse; conditions: administered versus non-administered group
Protocol: Mice induced to be obese by feeding high fat feed were divided into two groups. OK was administered to one of the groups, and OK was not administered to the other group.

old mice = assay: Muscle mass by MRI (volume of right gastrocnemius muscle/soleus muscle), with/without treadmill exercise; type: in vivo, mouse
Protocol: OK-1 was then intraperitoneally administered to each mouse twice a week at 20 mg/kg/day over 8 weeks (i.e., until reaching 23 week old and 88 week old, respectively). Treadmill exercise was conducted three times a week at 8 m/minute for 5 minutes→15 m/minute for 35 minutes while administering OK-1 twice a week at 20 mg/kg/day over 5 weeks (i.e., until reaching 28 week old and 93 week old, respectively). The muscle mass was then measured with the following equipment and conditions through MRI (FIG. 1B). MRI (MRminiSA1545, Japan REDOX) (magnetic flux density: 1.5 tesla (permanent magnet) (temporal resolution: 100 ns) was used to capture images of the lower limbs of the mice. The recovered data was converted into dicom data, and the volume of right gastrocnemius muscle/soleus muscle was quantified with Osirix Lite.

[4] = tested on: Diabetes mouse models (e.g., KK/TaJcl); assay: Diabetes mouse model; type: in vivo; conditions: administered versus non-administered group
Protocol: Diabetes mouse models (e.g., KK/TaJcl) were divided into two groups. OK was administered to one of the groups, and OK was not administered to the other group.

old mice (C57BL/6J) = assay: Treadmill test of muscle strength (endurance) in young and old mice; type: in vivo, mouse
Excerpt: Decrease in endurance in old mice In order to confirm that a decrease in muscle strength is observed in mouse models (C57BL/6J) (purchased from Oriental Yeast), the muscle strength (endurance) in 15-week old young mice and 79-week-old old mice was investigated in a treadmill test in accordance with the following (FIG. 1A). Prior to recording the performance, mice were trained for 3 days to acclimate the mice to the equipment. Electric stimulation grid was adjusted to 1 mA, and the gradient was set to 15 degrees. On the first day of training, mice were induced to walk for 10 minutes at a rate of 10 m/minute, allowed to rest for 10 minutes, and then induced to walk for 10 minutes at a rate of 10 m/minute on a treadmill. On day 2 and day 3, the first two steps were the under the same conditions as day 1, and then the mice were induced to start walking at 10 m/minute. The speed was increased by 1 m/minute until reaching the maximum speed of 20 m/minute. On day 4, the maximum exercise endurance was measured. Six mice were placed on a treadmill, which was started at a belt speed of 5 m/minute for 5 minutes to let the mice warm up. The speed was increased 1 m/minute until reaching the maximum speed of 20 m/minute. After making the mice run for 5 minutes, the speed was increased from 20 m/minute to 21 m/minute for 10 minutes. The mice were then forced to run at 22 m/minute until stalling on the electric stimulation grid for 10 seconds. The distance traveled until stalling for 10 seconds was measured.
(§2) OK-1 manufactured in Manufacturing Example 1 was intraperitoneally administered to young and old mice twice a week over three months. The dosage was 20 mg/kg/day.
74-week old mice (C57B16/J) were purchased from Oriental Yeast. […] Muscle strength (endurance) and grip strength of mice administered with C-82 were then measured through a treadmill test and smart grip strength meter for rats and mice (Muromachi Kikai Co., Ltd.), respectively. […]

[5] = Body weight and behavior during the dosing period; type: in vivo, mouse; conditions: intraperitoneal, twice a week over three months, 20 mg/kg/day; young and old mice
Protocol: as §2

P301S mouse models = assay: Tau phosphorylation, memory and brain atrophy in tauopathy model; type: in vivo; conditions: P301S (FTDP-17) mouse model
myoblast C2C12 = assay: Gene analysis (RNA-seq) in C-82 treated myoblasts; type: cell-based, mouse; conditions: C-82 treated C2C12
Protocol: This Example investigated what gene modulation C-82 is involved with in myoblast C2C12 to identify a gene that is useful in the diagnosis or treatment of sarcopenia.
Gene analysis (RNA-seq) in C-82 treated myoblasts was performed by the same method as Example 2.

[6] = tested on: 74-week old mice (C57B16/J); assay: Grip strength test (smart grip strength meter); type: in vivo, mouse; conditions: 7 mg/kg and 20 mg/kg intraperitoneal twice a week for 6 weeks
Protocol: 74-week old mice (C57B16/J) were purchased from Oriental Yeast. Various concentrations (0 mg/kg (control), 7 mg/kg, and 20 mg/kg) of C-82 were administered twice a week through a 6-week intraperitoneal administration until reaching 80-week old. Muscle strength (endurance) and grip strength of mice administered with C-82 were then measured through a treadmill test and smart grip strength meter for rats and mice (Muromachi Kikai Co., Ltd.), respectively. The treadmill test was conducted under the same condition as Example 1.

## C[C@H]1[C@H]2N(C(=O)CN(C)N2C(=O)NCc2ccccc2)[C@@H](Cc2ccc(OP(=O)(O)O)cc2)C(=O)N1Cc1cccc2cccnc12 [OK-1]
[1]; GSEA
  gene group associated with OK-1 by GSEA: genes regulating muscle genes with exercise: ETS2, ETS1, EP300, RUNX2, SMAD3, SMAD4, E2F1, NOTCH1, TRP53, PAX6, SMAD1, SP1, SPI1, and NFKB1
[1]; OK-1 administration, p<0.05
  genes decreased (downregulated expression) significantly in muscle: 631 genes
  genes increased (upregulated expression) significantly in muscle: 145 genes
[1]; upstream transcription factors
  gene group associated with OK-1: genes associated with muscle control with exercise: Jun, Ets1, Sp1, Ep300, Usf2, Fosl1, Nfkb1, Smad3, Srf, Junb, Runx2, Ets2, Etv4, Tgfb1, and Tgfb1i1
C2C12 cells
  gene expression levels versus untreated cells: change in gene expression similar to Example 2
[2]; top 100 genes
  gene group associated with OK-1: genes with change in muscle control with/without exercise, disease-associated: Dsp, Krt17, Comp, Krt86, Krt81, Krt83, Krt14, Abca12, Tchh, Krt5, Dsg4, Lpl, Myh6, Tfap2a, Col1a1, Lepr, Fn1, Col1a2, Col6a1, Col3a1, Mmp2, Acta2, F13a1, Col6a2, and Cx3cr1
Sarcopenia mouse models
  pancreatic function, liver function and salivary gland function: pancreatic function, liver function, and salivary gland function are improved
[3]
  metabolism: metabolism is improved
Old mice; 20 mg/kg/day twice a week plus treadmill exercise three times a week over 5 weeks
  muscle mass (MRI), combined use of administration with exercise: muscle mass significantly recovers synergistically
Old mice; intraperitoneal 20 mg/kg/day twice a week over 8 weeks, then 5 further weeks
  muscle mass (MRI): increases muscle mass in old mice
[4]
  insulin secretion and insulin resistance: at least one of insulin secretion and insulin resistance is improved
Old mice (C57BL/6J); intraperitoneal, twice a week over three months, 20 mg/kg/day, young (15-week) and old (79-week) mice
  muscle strength (endurance) through a treadmill test: increase in muscle strength due to OK-1 administration, which is specific to old mice
[5]
  change in body weight and behavioral abnormality during the dosing period: a significant change in body weight and behavioral abnormality were not observed
P301S mouse models
  phosphorylation of Tau, memory or brain atrophy: suppression in phosphorylation of Tau and improvement in memory or brain atrophy are observed

## C[C@H]1[C@H]2N(C(=O)CN(C)N2C(=O)NCc2ccccc2)[C@@H](Cc2ccc(O)cc2)C(=O)N1Cc1cccc2cccnc12 [C-82, (6S,9S)—N-benzyl-6-(4-hydroxybenzyl)-2,9-dimethyl-4,7-dioxo-8-(quinolin-8-ylmethyl)hexahydro-2H-pyrazino[2,1-c][1,2,4]triazine-1(6H)-carboxamide]
Myoblast C2C12
  gene group associated with C-82 (upstream transcription factor analysis): Nfkb1, Srebf2, Sp1, Trp53, Xbp1, Myod1, Srebf1, Jun, Stat3, Sp3, Myf6, Nr3c1, Foxo3, Nfe212, Myf5, Ahr, Ep300, Myog, and Usf2
  genes decreased significantly in myoblasts: 611 genes
  genes increased significantly in myoblasts: 581 genes
[1]; C-82 administration, same method as Example 2
  change in gene expression in muscles: achieves the same result as OK-1
C2C12 cells
  gene expression levels versus untreated cells: change in gene expression similar to Example 2
[6]
  grip strength: a significant difference was not observed in grip strength, a tendency for a concentration dependent increase was observed; also recorded: a significant difference was not observed in grip strength, a tendency of a concentration dependent increase was observed
[2]; C-82 administration, mice with/without exercise
  diseases associated with the top 100 differentially expressed genes: achieves the same result as OK-1
Sarcopenia mouse models
  pancreatic function, liver function and salivary gland function: pancreatic function, liver function, and salivary gland function are improved
Old mice (C57BL/6J); 74-week old mice, 7 mg/kg and 20 mg/kg intraperitoneal twice a week for 6 weeks, versus no administration
  muscle strength (endurance) through a treadmill test: significant increase in muscle strength (endurance); also recorded: increased significantly
P301S mouse models
  phosphorylation of Tau, memory or brain atrophy: suppression in phosphorylation of Tau and improvement in memory or brain atrophy are observed
